Two molecules from patent US9981972B2, “N-hydroxy bicyclic hydantoin carbamates as tools for identification of serine hydrolase targets” (ABIDE THERAPEUTICS, INC., priority 2014, dated 2018) can be followed below.

Entries after “also recorded” stand apart in the source; their conditions may differ. Some results are limits rather than exact numbers.

Data set [1] in a line: Analysis of cytotoxicity (WST-1). The class given is cell-based, human. As to conditions: human, HeLa cells; HeLa, 48 h, WST-1. Here is the method: Assay Overview: The purpose of this assay was to determine cytotoxicity of powder samples of test compounds. In this assay, HeLa cells in either serum-free medium or medium containing fetal calf serum (FCS) were incubated with test compounds, followed by determination of cell viability. The assay utilized the WST-1 substrate, which was converted into colorimetric formazan dye by the metabolic activity of viable cells. The amount of formed formazan directly correlated to the number of metabolically active cells in the culture.
Protocol Summary: This assay was started by seeding HeLa cells in DMEM medium supplemented with 10% FCS and 1× Pen-Strep-Glutamine in a 96-well plate. Cells were incubated at 37° C. in a humidified incubator until 80% confluent (24 hours). Medium was removed, and 100 μL of fresh medium (serum-free or supplemented with 10% FCS), pre-mixed with DMSO or test compound, was added to each well. Cells were incubated for 48 hours at 37° C. in a humidified incubator and cell viability was determined by the WST-1 assay (Roche) according to manufacturer instructions. CC50 values were determined from dose-response curves from three replicates at each inhibitor concentration (10, 100, 1000, 10000, 100000 nM), compared to six replicates of cells treated with DMSO only.

For data set [2], the system named is FP-sensitive SHs in the mouse brain membrane proteome. In words: Gel-based competitive ABPP in vitro, mouse brain membrane proteome, anti-targets. As to conditions: for Anti-target(s) 0.1 μM: SHs with at least 50% inhibition at 0.1 μM compound; for Anti-target(s) 1 μM: SHs with at least 50% inhibition at 1 μM compound; for Anti-target(s) 10 μM: SHs with at least 50% inhibition at 10 μM compound; for Anti-target(s) 100 μM: SHs with at least 50% inhibition at 100 μM compound. The class given is biochemical. The essentials:
(§1)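 Mouse brain membrane proteome (1 mg/mL in DPBS) was treated with compound (0.1-100 μM) for 30 min at 37 °C, then labeled with FP-Rh (2 μM final, 30 min, 25 °C). Bands were resolved by SDS-PAGE and scanned in-gel, with inhibition taken from band optical density versus DMSO. Targets counted as active or anti-targets at ≥50% inhibition.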

The target of another data set is T1, human LYPLA1 (Homo sapiens, UniProt O75608).
T1 construct: endogenous human LYPLA1/2 in a HeLa soluble proteome; endogenous in cells; host or cells: HeLa (soluble proteome in vitro; cultured cells in situ)
T1 sequence (O75608 whole entry): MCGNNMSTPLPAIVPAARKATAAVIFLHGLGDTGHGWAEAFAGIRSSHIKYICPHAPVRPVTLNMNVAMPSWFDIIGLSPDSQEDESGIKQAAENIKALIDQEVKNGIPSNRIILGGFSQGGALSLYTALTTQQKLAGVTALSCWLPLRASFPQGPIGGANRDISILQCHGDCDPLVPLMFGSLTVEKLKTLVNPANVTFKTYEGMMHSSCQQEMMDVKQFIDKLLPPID
In words: IC50 by gel-based competitive ABPP in vitro, soluble HeLa cell proteome. Format: biochemical. The conditions noted are these: human LYPLA isoform, three replicates; Table 2 prints no unit, nM; read-out: LYPLA1 IC50. Here is the method:
(§2) Assay Overview: The purpose of this assay was to determine IC50 values of powder samples of test compounds for enzyme of interest activity, and anti-targets in a complex proteomic lysate using a gel-based competitive ABPP assay. In this assay, a complex proteome was incubated with test compound followed by reaction with FP-Rh and SDS-PAGE analysis as described above.
(§3) Protocol Summary: Soluble HeLa cell proteome (50 μL reaction volume, 1 mg/mL in DPBS) or mouse brain membrane proteome (50 μL reaction volume, 1 mg/mL in DPBS) was treated with varying concentrations of test compound (1 μL of a 50× stock in DMSO) for 30 minutes at 37° C. FP-Rh (1 μL of 50× stock in DMSO) was added to a final concentration of 2 μM. The reaction was incubated for 30 minutes at 25° C., quenched with 16 μL 4×SDS-PAGE loading buffer (reducing), separated by SDS-PAGE and visualized by in-gel fluorescent scanning. The percentage activity remaining was determined by measuring the integrated optical density of the enzymes of interest, and anti-target bands relative to a DMSO-only (no compound) control. IC50 values were determined from dose-response curves from three replicates at each inhibitor concentration: 1, 10, 100, 1000, 10000 nM and 0.01, 0.1, 1, 10, 100, 1000, 10000, 50000, and 100000 nM.

Another data set deals with T2, human LYPLA2 (Homo sapiens, UniProt O95372).
T2 construct: endogenous human LYPLA1/2 in a HeLa soluble proteome; endogenous in cells; host or cells: HeLa (soluble proteome in vitro; cultured cells in situ)
T2 sequence (O95372 whole entry): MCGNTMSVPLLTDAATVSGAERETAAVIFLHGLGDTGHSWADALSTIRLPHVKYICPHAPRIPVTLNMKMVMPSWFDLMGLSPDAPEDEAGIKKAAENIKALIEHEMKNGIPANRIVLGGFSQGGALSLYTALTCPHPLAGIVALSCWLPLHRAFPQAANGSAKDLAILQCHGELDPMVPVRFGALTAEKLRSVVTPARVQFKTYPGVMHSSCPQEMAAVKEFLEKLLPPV
Described as above. The class given is biochemical. The conditions noted are these: human LYPLA isoform, three replicates; Table 2 prints no unit, nM; read-out: LYPLA2 IC50. As for the experimental part:
as §2, §3

The target of the next data set is T3, LYPLA1 (Mus musculus, UniProt P97823).
T3 construct: a complex proteome endogenously expressing LYPLA1/2 was incubated with test compound; from tissue; host or cells: mouse brain, membrane fraction
T3 sequence (P97823 whole entry): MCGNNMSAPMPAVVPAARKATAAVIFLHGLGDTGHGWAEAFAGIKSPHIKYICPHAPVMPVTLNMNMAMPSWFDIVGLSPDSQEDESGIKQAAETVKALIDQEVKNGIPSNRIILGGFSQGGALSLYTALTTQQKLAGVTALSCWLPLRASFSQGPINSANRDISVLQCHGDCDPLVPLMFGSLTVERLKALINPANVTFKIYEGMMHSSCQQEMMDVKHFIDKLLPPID
In words: Gel-based competitive ABPP in vitro, mouse brain membrane proteome. The class given is biochemical. As to conditions: 30 min, one replicate; for inhibition at 0.1 µM: 0.1 μM compound, read-out: LYPLA1 % INH 0.1 μM; for inhibition at 1 µM: 1 μM compound, read-out: LYPLA1 % INH 1 μM; for inhibition at 10 µM: 10 μM compound, read-out: LYPLA1 % INH 10 μM; for inhibition at 100 µM: 100 μM compound, read-out: LYPLA1 % INH 100 μM. A digest of the protocol:
as §1

The next data set concerns the target T4, LYPLA2 (Mus musculus, UniProt Q9WTL7).
T4 construct: a complex proteome endogenously expressing LYPLA1/2 was incubated with test compound; from tissue; host or cells: mouse brain, membrane fraction
The description is as above. The class given is biochemical. As to conditions: 30 min, one replicate; for inhibition at 0.1 µM: 0.1 μM compound, read-out: LYPLA2 % INH 0.1 μM; for inhibition at 1 µM: 1 μM compound, read-out: LYPLA2 % INH 1 μM; for inhibition at 10 µM: 10 μM compound, read-out: LYPLA2 % INH 10 μM; for inhibition at 100 µM: 100 μM compound, read-out: LYPLA2 % INH 100 μM. A digest of the protocol: as §1

For a further data set, the system named is human SHs. In words: ABPP-SILAC analysis to identify SH targets of Compound 5. Format: biochemical. An excerpt:
Compound 5 was selected for analysis by mass spectrometry (MS)-based ABPP methods to assess the range of SHs targeted by N-Hydroxy bicyclic hydantoin carbamates.

T4 sequence (Q9WTL7 whole entry): as the sequence (O95372 whole entry) above, with A154N, S193T counted along it

A word on the CC50: it is the concentration that lowers cell viability or growth by half. Broadly, the IC50 is the point on the concentration scale where inhibition reaches its midpoint. Take `O=C(ON1C(=O)C2CN(C(=O)N3CCCCC3)CCN2C1=O)N1CCC(CCc2ccc(Cl)cc2)CC1` (stereo not shown) [Compound 2, 1,3-dioxo-7-(piperidine-1-carbonyl)hexahydroimidazo[1,5-a]pyrazin-2(3H)-yl 4-(4-chlorophenethyl)piperidine-1-carboxylate]: the CC50 at 48 h in data set [1] is at least 10000 nM. In data set [2], the “Anti-target(s) 0.1 μM” value was “ABHD6”, the “Anti-target(s) 1 μM” value was “FAAH,; also recorded: ABHD6”, the “Anti-target(s) 10 μM” value is reported as “FAAH,; also recorded: ABHD12,; also recorded: ABHD4,; also recorded: MAGL,; also recorded: ABHD6” and the “Anti-target(s) 100 μM” value was “FAAH,; also recorded: ABHD12,; also recorded: ABHD4,; also recorded: MAGL,; also recorded: ABHD6”. Further, the IC50 at human LYPLA1 came to 154 nM. Also, the IC50 on human LYPLA2 turned out to be 258 nM. At LYPLA1, the inhibition at 0.1 µM was determined as 50%, the inhibition at 1 µM is 100%, the inhibition at 10 µM is 100% and the inhibition at 100 µM is 100%. Besides, at LYPLA2, the inhibition at 0.1 µM came out at 50%, the inhibition at 1 µM was 100%, the inhibition at 10 µM amounted to 100% and the inhibition at 100 µM turned out to be 100%.
As for `CC(C)(C)OC(=O)N1CCN2C(=O)N(OC(=O)N3CCC(CCc4ccc(Cl)cc4)CC3)C(=O)C2C1` (stereo not shown) [Compound 5, tert-butyl 2-(4-(4-chlorophenethyl)piperidine-1-carbonyloxy)-1,3-dioxohexahydroimidazo[1,5-a]pyrazine-7(1H)-carboxylate], in the data set on human SHs, the “SHs inhibited by Compound 5 (three-fold or greater decrease in signal)” value was “ABHD6 and MGLL and ABHD4 and ABHD12 and PLA2G15 and PNPLA4”. Further, in data set [2], the “Anti-target(s) 0.1 μM” value was “ABHD6”, the “Anti-target(s) 1 μM” value was “FAAH,; also recorded: ABHD6”, the “Anti-target(s) 10 μM” value is given as “FAAH,; also recorded: ABHD12,; also recorded: ABHD6” and the “Anti-target(s) 100 μM” value is on record as “FAAH,; also recorded: ABHD12,; also recorded: MAGL,; also recorded: ABHD6”. At LYPLA1, the inhibition at 0.1 µM was 50%, the inhibition at 1 µM came out at 80%, the inhibition at 10 µM worked out at 100% and the inhibition at 100 µM amounted to 100%. On LYPLA2, the inhibition at 0.1 µM is 50%, the inhibition at 1 µM worked out at 80%, the inhibition at 10 µM is 100% and the inhibition at 100 µM was determined as 100%.
